Results from patent US12648569B2 (priority 2022, dated 2026).
Where a name gives a salt, the structure may show the parent alone.

Columns and labels:
[1] = system: Ralstonia solanacearum MN R.s1 strain; format: in vivo; settings: tomato seedlings
[2] = system: Ralstonia solanacearum R.s (MN R.s1); format: in vivo; settings: tomato seedlings, roots soaked 10 min, R.s irrigated after 7 d

| Compound | Compatibility (M173) | further results |
| --- | --- | --- |
| O=P([O-])(O)O.[K+] | Compatible | – |
| N.N.O=S(=O)(O)O [Ammonium sulfate] | Compatible | – |
| COC(=O)Nc1nc2ccccc2[nH]1 [Carbendazim] | Compatible | – |
| N#Cc1c(Cl)c(Cl)c(Cl)c(C#N)c1Cl [Chlorothalonil] | Compatible | – |
| CN/C(=N/CC1CCOC1)N[N+](=O)[O-] (stereo not shown) [Dinotefuran] | Compatible | – |
| O=[N+]([O-])c1cc(C(F)(F)F)c(Cl)c([N+](=O)[O-])c1Nc1ncc(C(F)(F)F)cc1Cl [Fluazinam] | Compatible | – |
| CCO[PH](=O)O [Fosetyl-aluminum] | Compatible | – |
| CC1(C)[C@H](C(=O)O[C@H](C#N)c2cccc(Oc3ccccc3)c2)[C@@H]1/C=C(\Cl)C(F)(F)F [Gamma-cyhalothrin] | Compatible | – |
| COCC(=O)N(c1c(C)cccc1C)[C@H](C)C(=O)OC [Metalaxyl-M] | Compatible | – |
| CCCOC(=O)NCCCN(C)C [Propamocarb hydrochloride] | Compatible | – |
| O=[N+]([O-])c1c(Cl)c(Cl)c(Cl)c(Cl)c1Cl [Quintozene] | Compatible | – |
| CN1COCN(Cc2cnc(Cl)s2)/C1=N\[N+](=O)[O-] [Thiamethoxam] | Compatible | – |
| CN(C)C(=S)SSC(=S)N(C)C [Thiram] | Compatible | – |
| NC(N)=O [Urea] | Compatible | – |
| neophytomycin [Positive control group] | – | Mortality/% ([1]; leaf cutting with scissors soaked in agent + R.s suspension, 7 d at 30° C.): 16.67%; Relative control effect/% ([1]; leaf cutting, relative to negative control): 81.01%; Control effect/% [2]: 37.30%; Disease index/% [2]: 14.00%; Morbidity/% [2]: 16.70% |
